Reference: patent US11090292B2, “Compositions and methods of use of an inappetance-controlling compound” (Aratana Therapeutics, Inc., priority 2012, dated 2021)

What was measured:
[1] = Example 1: capromorelin concentration in serum; format: in vivo
Experimental: A controlled, seven-day study was performed to assess the impact of different capromorelin-dosing regimens on the production of insulin-like growth factor 1 (hereinafter “IGF-1”), growth hormone (hereinafter “GH”), and cortisol. The different capromorelin-dosing regimens were also assessed for the impact on food intake and changes in body mass.
Eighteen adult non-naïve Beagle dogs (nine males and nine females) were divided into one of three treatment groups. Each of the three treatment groups included three males and three females. Group A, which was the control group, was dosed twice per day, via oral gavage, with a vehicle (deionized water alone) and was used as a baseline data point for comparison against the active treatment regimens. Group B comprised an active treatment group that received two treatments per day, via oral gavage, with a capromorelin-containing composition with a concentration of 3 mg/kg capromorelin per treatment. Finally, Group C comprised an active treatment group that received one treatment per day, via oral gavage, with a capromorelin-containing composition with a concentration of 6 mg/kg capromorelin per treatment.
(§1) During the ten day study period, on an at least once-daily basis, each of the dogs was monitored for clinical observations, mortality, morbidity, body mass, and food consumption. Serum samples were taken to measure capromorelin concentration, GH concentration, IGF-1 concentration, and cortisol concentration. Serum samples were taken on days 1, 2, 4, and 7 at −15 minutes (pre-dose), immediately prior to dosing (0 minutes) and 30, 45, 60, 90, 120, 240, 360, and/or 480 minutes post dosing. Additional blood samples were taken at 8 AM on Day 10 of the study to assess long-term impact of the active treatments.

IGF-1 [2] = assay: Example 4: serum IGF-1 concentration; format: in vivo, Beagle dogs
Experimental: (§2) A controlled, seven-day study was performed to assess the impact of different capromorelin-dosing regimens on the production of IGF-1, GH, and cortisol. The different capromorelin-dosing regimens were also assessed for the impact on food intake and changes in body mass.
(§3) […] were divided into one of three treatment groups, with one negative control group and two active treatment groups. Each of the three treatment groups included three males and three females. The first group received a placebo formulation (i.e., deionized water) twice per day, via oral gavage. The second group received a once-daily dose of the capromorelin composition at a concentration of 3 mg/kg, via oral gavage. The third group received a twice-daily dose of the capromorelin composition at a concentration of 3 mg/kg, via oral gavage.
as §1, with “moribundity,” for “morbidity,”, “mass, acceptability/palatability,” for “mass,”, “serum” for “blood”

IGF-1 [3] = assay: Example 5: serum IGF-1; format: in vivo, Beagle dogs; conditions: by Day 4, remained elevated on Day 7, Groups 2-4
Experimental: In order to further refine the dosing regimen that would provide an appropriate blood profile of capromorelin and desired results from the perspective of increased food intake and weight gain, an additional series of experiments were conducted. In these experiments, twenty-four adult (male and female) Beagle dogs weighing approximately 9 to 13 kilograms were randomly divided into four groups. Group 1 received a placebo formulation, without any active compound, two times per day; Group 2 received a composition comprising 3 mg/kg of body weight of capromorelin one time per day; Group 3 received a composition comprising 4.5 mg/kg of body weight of capromorelin one time per day; and Group 4 received a composition comprising 3 mg/kg of body weight of capromorelin two times per day. […]
In these experiments, the animals were orally administered the flavored formulation at approximately 8:00 AM and, for Group 4 only, again at 6:00 PM. […] Food consumption was calculated and recorded on Days −7 through Day 7. Baseline food consumption was calculated for each individual dog as the average number of grams of food consumed on Days −3, −2, and −1. The study period food consumption was calculated for each individual dog as the average of Days 1 through 7. […]

[4] = Example 5: capromorelin concentration in serum; format: in vivo, Beagle dogs
Experimental: (§4) In order to further refine the dosing regimen that would provide an appropriate blood profile of capromorelin and desired results from the perspective of increased food intake and weight gain, an additional series of experiments were conducted. In these experiments, twenty-four adult (male and female) Beagle dogs weighing approximately 9 to 13 kilograms were randomly divided into four groups. Group 1 received a placebo formulation, without any active compound, two times per day; Group 2 received a composition comprising 3 mg/kg of body weight of capromorelin one time per day; Group 3 received a composition comprising 4.5 mg/kg of body weight of capromorelin one time per day; and Group 4 received a composition comprising 3 mg/kg of body weight of capromorelin two times per day.
(§5) In particular, on the first day of dosing, Day 1, through the last day of dosing, Day 7, the compositions were orally administered (i.e., using a syringe) to the animals in a flavored formulation of the following composition: […]
In these experiments, the animals were orally administered the flavored formulation at approximately 8:00 AM and, for Group 4 only, again at 6:00 PM. The animals were fed at 10:00 AM beginning seven days prior to Day 1 and continuing for the duration of the study. The animals were offered twice the normal amount of food. Approximately two hours after the food offering, the remainder was removed and weighed to assess food intake. This restricted feeding regime was started at Day −7 to allow the animals to transition to a normal feed intake before the study was initiated. Food consumption was calculated and recorded on Days −7 through Day 7. Baseline food consumption was calculated for each individual dog as the average number of grams of food consumed on Days −3, −2, and −1. The study period food consumption was calculated for each individual dog as the average of Days 1 through 7. Body weights were collected on Days −1, 3, and 7. […]

[5] = Example 5 seven-day study with flavored Formulation 9: food consumption and body weight; format: in vivo, Beagle dogs; conditions: for more food consumed, Day 7 compared with Day −1: oral syringe, Formulation 9
Experimental: as §4, §5
In these experiments, the animals were orally administered the flavored formulation at approximately 8:00 AM and, for Group 4 only, again at 6:00 PM. The animals were fed at 10:00 AM beginning seven days prior to Day 1 and continuing for the duration of the study. The animals were offered twice the normal amount of food. Approximately two hours after the food offering, the remainder was removed and weighed to assess food intake. This restricted feeding regime was started at Day −7 to allow the animals to transition to a normal feed intake before the study was initiated. Food consumption was calculated and recorded on Days −7 through Day 7. Baseline food consumption was calculated for each individual dog as the average number of grams of food consumed on Days −3, −2, and −1. The study period food consumption was calculated for each individual dog as the average of Days 1 through 7. Body weights were collected on Days −1, 3, and 7. Blood was collected for measurements of capromorelin, growth hormone, cortisol, and IGF-1 concentrations on Days 1, 4, and 7 at about 15 minutes pre-administration, immediately prior to dosing (0 minutes), 30, 45, 60, 90, 120, 240, 360, and/or 480 minutes post dosing via the jugular or other accessible vessel. As reflected by the data in FIGS. 61-74, the animals' response to the capromorelin-containing composition is largely in accord with the results discussed above.

[6] = Example 4 seven-day study once vs twice daily 3 mg/kg: food consumption and body weight; format: in vivo, Beagle dogs
Experimental: as §2, §3
as §1, with “moribundity,” for “morbidity,”, “mass, acceptability/palatability,” for “mass,”, “Additional blood samples were taken at 8 AM on Day 10 of the study to assess long-term impact of the active treatments.” left out

[7] = Example 12: food consumption; format: in vivo, cats; conditions: IV 0.75 mg/kg or oral 3 mg/kg, short treatment
Experimental: Similar to some of the other pharmacokinetic analyses conducted in dogs and cats, an additional pharmacokinetic study was conducted in cats to assess capromorelin formulations that allow sufficient drug to circulate to produce appetite stimulation and to define the capromorelin pharmacokinetic profile in cats. Briefly, twelve cats were randomized into Group 1 (six cats) and Group 2 (six cats). Group 1 received an intravenous formulation that included 0.75 mg/kg of capromorelin dissolved in sterile water and Group 2 received a previously tested formulation via oral gavage. Food consumption was determined daily for all cats. Specifically, animals were offered feed at approximately 11:00 AM, with the removal of feed at approximately 3:00 PM. Upon removal of feed, the amount consumed was calculated.

[8] = Days 1 and 7, 3 mg/kg twice daily or 6 mg/kg once daily oral gavage

## CN1N=C2CCN(C(=O)[C@@H](COCc3ccccc3)NC(=O)C(C)(C)N)C[C@@]2(Cc2ccccc2)C1=O.O=C(O)C(O)C(O)C(=O)O [capromorelin]
[1]; [8]
  serum capromorelin by eight hours after dosing (480 minutes): decreased to near undetectable levels
  time after dosing at which serum capromorelin concentrations spike: approximately 0.5 h
[1]; oral gavage
  serum capromorelin concentration, 6 mg/kg dose relative to twice-daily 3 mg/kg dose: about 2.3 fold
IGF-1 [2]; Day 10
  serum IGF-1 levels versus deionized water three days after terminating treatment: not significantly different
IGF-1 [2]; once-daily 3 mg/kg, day 1
  increase in serum IGF-1 concentration at eight hours post administration relative to time 0: approximately 83.9%
IGF-1 [2]; once-daily 3 mg/kg, day 4
  increase in serum IGF-1 concentration at eight hours post administration relative to time 0: approximately 39.5%
IGF-1 [2]; once-daily 3 mg/kg, day 7
  increase in serum IGF-1 concentration at eight hours post administration relative to time 0: ~36.8%
IGF-1 [2]; twice-daily 3 mg/kg, day 1
  increase in serum IGF-1 concentration at eight hours post administration relative to time 0: approximately 50.6%
IGF-1 [2]; twice-daily 3 mg/kg, day 4
  increase in serum IGF-1 concentration at eight hours post administration relative to time 0: approximately 15.4%
IGF-1 [2]; twice-daily 3 mg/kg, day 7
  increase in serum IGF-1 concentration at eight hours post administration relative to time 0: ~13.3%
IGF-1 [3]
  IGF-1 levels in treated animals: sustained increase
[4]; Days 1 and 7, Groups 2-4
  serum capromorelin by 8 hours: back to baseline levels
  time post administration of initial spike of serum capromorelin: 30 min
[4]; seven days of dosing
  capromorelin accumulation: no evidence of capromorelin accumulation
[5]; Group 2, 3 mg/kg 1x per day
  Comparison of Weight on Day −1 to Weight on Day 7 (X ± SD, %): 4.52 ± 1.67%
[5]; Group 2, 3 mg/kg one time per day
  more food consumed, Day 7 compared with Day −1: 42.7%
[5]; Group 3, 4.5 mg/kg 1x per day
  Comparison of Weight on Day −1 to Weight on Day 7 (X ± SD, %): 3.78 ± 2.93%
[5]; Group 3, 4.5 mg/kg one time per day
  more food consumed, Day 7 compared with Day −1: 34.5%
[5]; Group 4, 3 mg/kg 2x per day
  Comparison of Weight on Day −1 to Weight on Day 7 (X ± SD, %): 4.17 ± 1.35%
[5]; Group 4, 3 mg/kg two times per day
  more food consumed, Day 7 compared with Day −1: 31.5%
[6]; once-daily 3 mg/kg oral gavage
  weight loss over the course of the experiment: did not experience weight loss or did not experience as great a weight loss as the negative control
[6]; once-daily and twice-daily 3 mg/kg oral gavage, 7 days
  average more food consumed daily relative to the negative control: approximately 34%
[7]
  observed food consumption: did not reveal any significant increases in food consumption
